The test system of this assay is SHANK3 mutant mice. In words: Three-chamber sociability test, SHANK3 mutant mice. It is filed as in vivo, mouse. On the procedure:
Three-chambered sociability test (see, FIG. 4B): Sociability and preference for social novelty and social recognition were tested in a three-chambered apparatus. The subjected mouse was first placed in the central, neutral chamber and allowed to explore for 10 minutes with all the doors closed. Next, doors were opened and the mouse was allowed to freely explore the other two empty chambers (1 and 2) for an additional 10 minutes. Lack of side preference was confirmed during this habituation.
Two cylindrical wire cages were placed, one in chamber 1 and the other in chamber 2. For the sociability test, the test animal was introduced to the middle chamber and allowed to adjust for 5 minutes. Then, an unfamiliar mouse was introduced into a wire cage in one of the side-chambers, and the other side-chamber remained empty. The time spent by the test mouse exploring the wire cage with an unfamiliar mouse inside was recorded for 5 minutes.
Next, to examine social memory, novel mice is introduced to the empty cage and the tested mice is examined whether they are interested in the novel mice compared to the familiar.
A dose dependent study was conducted to determine the optimal dose that may produce the greatest effect on mice behavior. The SHANK3 mutant mice (n=5 for each group) were treated with the 7-NI (i.p) at doses of 0, 20, 50, and 80 mg/kg. This was followed by a set of behavioral tests to assess the proper dose of 7-NI that can reverse the autistic phenotypes observed in this model.
A three-chamber sociability test was conducted to evaluate the interest of mice in engaging in social interaction with a stranger mouse, as described hereinabove and shown in FIG. 4B. […] Comparing to the 50 mg/kg, although statistically the difference is not significant, the 80 mg/kg-treated group spent more time interacting with the stranger mouse.
A 100 μL injection of the poly(sebacic acid-ricinoleic acid) (PSARA) gel formulation with 7NI was used to evaluate its effect in reversing ASD-like behaviors in SHANK3 mice. […]

These results are taken from US20250255850A1, “PHARMACEUTICAL COMPOSITIONS FOR TREATING NEUROLOGICAL CONDITIONS” (YISSUM RESEARCH DEVELOPMENT COMPANY OF THE HEBREW …, priority 2021, published 2025).

On to `O=[N+]([O-])c1cccc2cn[nH]c12` [7-NI, 7-nitroindazole], for which the “time interacting with the stranger mouse (first session)” value (7-NI 80 mg/kg compared to 20 mg/kg) is on record as “spent significantly more time interacting with the stranger mouse”. For the same molecule, under “7-NI 80 mg/kg compared to lower doses”, the “time interacting with the novel mouse (S2) (second session)” value is “spent more time interacting with the novel mouse (S2)”. Also, for the setting “doses 0, 20, 50, 80 mg/kg i.p.”, the “dose yielding the greatest reversal of the autistic phenotypes” value came to 80 mg/kg.
